Measured values: PubChem BioAssay (NCI)
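Test compounds were applied to cells in 96-well plates for 48 hours at 5 doses. TGI marks complete inhibition of growth.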

Tests used:
Assay in all cases: NCI tumour cell line growth inhibition, 48 h
[1] = tested on: SNB-78 CNS
[2] = tested on: OVCAR-5 ovarian
[3] = tested on: KM20L2 colon
[4] = tested on: HT29 colon
[5] = tested on: HCT-15 colon
[6] = tested on: DLD-1 colon
[7] = tested on: SF-539 CNS
[8] = tested on: HOP-18 NSCLC
[9] = tested on: OVCAR-3 ovarian
[10] = tested on: CCRF-CEM leukemia
[11] = tested on: NCI-H226 lung
[12] = tested on: SK-MEL-2 melanoma
[13] = tested on: CAKI-1 renal
[14] = tested on: A498 renal
[15] = tested on: P388 leukemia
[16] = tested on: HL-60(TB) leukemia
[17] = tested on: HOP-62 NSCLC
[18] = tested on: IGROV1 ovarian
[19] = tested on: XF 498 CNS
[20] = tested on: OVCAR-8 ovarian
[21] = tested on: HCT-116 colon
[22] = tested on: KM12 colon
[23] = tested on: UACC-257 melanoma
[24] = tested on: MALME-3M melanoma
[25] = tested on: UO-31 renal
[26] = tested on: EKVX NSCLC
[27] = tested on: LOX IMVI melanoma
[28] = tested on: MCF7 breast
[29] = tested on: SK-MEL-5 melanoma
[30] = tested on: SN12K1 renal
[31] = tested on: OVCAR-4 ovarian
[32] = tested on: COLO 205 colon
[33] = tested on: DMS 114 small cell lung
[34] = tested on: NCI-H460 lung
[35] = tested on: NCI-H23 lung
[36] = tested on: P388/ADR leukemia
[37] = tested on: HOP-92 NSCLC
[38] = tested on: SF-295 CNS
[39] = tested on: NCI-H522 lung
[40] = tested on: RXF 393 renal
[41] = tested on: U251 CNS
[42] = tested on: SK-OV-3 ovarian
[43] = tested on: NCI/ADR-RES ovarian
[44] = tested on: SK-MEL-28 melanoma
[45] = tested on: SNB-19 CNS
[46] = tested on: A549 NSCLC
[47] = tested on: K-562 leukemia
[48] = tested on: SF-268 CNS
[49] = tested on: SW-620 colon
[50] = tested on: DMS 273 small cell lung
[51] = tested on: MOLT-4 leukemia
[52] = tested on: SN12C renal
[53] = tested on: SNB-75 CNS
[54] = tested on: HCC-2998 colon
[55] = tested on: UACC-62 melanoma
[56] = tested on: M19-MEL melanoma
[57] = tested on: M14 melanoma
[58] = tested on: RXF-631 renal
[59] = tested on: TK-10 renal
[60] = tested on: ACHN renal
[61] = tested on: RPMI-8226 leukemia
[62] = tested on: LXFL 529 NSCLC
[63] = tested on: 786-0 renal
[64] = tested on: SR leukemia

O=CNc1cccc2c3c([nH]c12)CCCCCC3
TGI [1]: > 100 µM
TGI [2]: > 100 µM
TGI [3]: > 100 µM
TGI [4]: > 100 µM
TGI [5]: > 100 µM
TGI [6]: > 100 µM
TGI [7]: > 100 µM
TGI [8]: > 100 µM
TGI [9]: > 100 µM
TGI [10]: > 100 µM
TGI [11]: > 100 µM
TGI [12]: > 100 µM
TGI [13]: > 100 µM
TGI [14]: > 100 µM
TGI [15]: > 100 µM
TGI [16]: > 100 µM
TGI [17]: > 100 µM
TGI [18]: > 100 µM
TGI [19]: > 100 µM
TGI [20]: > 100 µM
TGI [21]: > 100 µM
TGI [22]: > 100 µM
TGI [23]: > 100 µM
TGI [24]: > 100 µM
TGI [25]: > 100 µM
TGI [26]: > 100 µM
TGI [27]: > 100 µM
TGI [28]: > 100 µM
TGI [29]: > 100 µM
TGI [30]: > 100 µM
TGI [31]: > 100 µM
TGI [32]: > 100 µM
TGI [33]: > 100 µM
TGI [34]: > 100 µM
TGI [35]: > 100 µM
TGI [36]: > 100 µM
TGI [37]: > 100 µM
TGI [38]: > 100 µM
TGI [39]: > 100 µM
TGI [40]: > 100 µM
TGI [41]: > 100 µM
TGI [42]: > 100 µM
TGI [43]: > 100 µM
TGI [44]: > 100 µM
TGI [45]: > 100 µM
TGI [46]: > 100 µM
TGI [47]: > 100 µM
TGI [48]: > 100 µM
TGI [49]: > 100 µM
TGI [50]: > 100 µM
TGI [51]: > 100 µM
TGI [52]: > 100 µM
TGI [53]: > 100 µM
TGI [54]: > 100 µM
TGI [55]: > 100 µM
TGI [56]: > 100 µM

CCOC(=O)C1C(c2cc(OC)c(O)c(OC)c2)c2cc3c(cc2OC1(C)O)OCO3 (stereo not given)
TGI [1]: > 100 µM
TGI [3]: > 100 µM
TGI [4]: > 100 µM
TGI [5]: > 100 µM
TGI [6]: > 100 µM
TGI [7]: > 100 µM
TGI [8]: > 100 µM
TGI [9]: > 100 µM
TGI [10]: > 100 µM
TGI [57]: > 100 µM
TGI [12]: > 100 µM
TGI [13]: 95.2 µM
TGI [16]: > 100 µM
TGI [17]: > 100 µM
TGI [18]: > 100 µM
TGI [19]: > 100 µM
TGI [20]: > 100 µM
TGI [21]: > 100 µM
TGI [58]: > 100 µM
TGI [23]: > 100 µM
TGI [24]: > 100 µM
TGI [25]: > 100 µM
TGI [26]: > 100 µM
TGI [27]: > 100 µM
TGI [29]: > 100 µM
TGI [31]: > 100 µM
TGI [32]: > 100 µM
TGI [59]: > 100 µM
TGI [34]: > 100 µM
TGI [35]: > 100 µM
TGI [60]: > 100 µM
TGI [37]: 57 µM
TGI [38]: > 100 µM
TGI [41]: > 100 µM
TGI [42]: > 100 µM
TGI [44]: > 100 µM
TGI [45]: > 100 µM
TGI [46]: > 100 µM
TGI [47]: > 100 µM
TGI [49]: > 100 µM
TGI [50]: > 100 µM
TGI [51]: > 100 µM
TGI [52]: > 100 µM
TGI [53]: 77.9 µM
TGI [55]: > 100 µM
TGI [56]: > 100 µM
TGI [61]: > 100 µM

Cc1ccc(NC(=O)CCC(=O)C2CC(=O)CC/C2=N\NC(=O)c2cc3ccccc3cc2O)cc1C (stereo not given)
TGI [1]: > 100 µM
TGI [2]: 56.8 µM
TGI [3]: 87.9 µM
TGI [4]: > 100 µM
TGI [5]: > 100 µM
TGI [6]: > 100 µM
TGI [7]: 87.3 µM
TGI [8]: > 100 µM
TGI [9]: 45.6 µM
TGI [10]: 58.3 µM
TGI [11]: 97.2 µM
TGI [57]: 88.9 µM
TGI [12]: 82.7 µM
TGI [13]: > 100 µM
TGI [14]: > 100 µM
TGI [16]: 29.9 µM
TGI [17]: > 100 µM
TGI [18]: 66.9 µM
TGI [19]: 99 µM
TGI [62]: > 100 µM
TGI [20]: > 100 µM
TGI [21]: > 100 µM
TGI [58]: > 100 µM
TGI [22]: > 100 µM
TGI [23]: 61.7 µM
TGI [24]: 90.2 µM
TGI [25]: 59.3 µM
TGI [26]: 99.6 µM
TGI [29]: 29.6 µM
TGI [31]: 51.4 µM
TGI [32]: 33.3 µM
TGI [59]: > 100 µM
TGI [33]: 51.6 µM
TGI [34]: > 100 µM
TGI [35]: 38 µM
TGI [60]: > 100 µM
TGI [37]: > 100 µM
TGI [38]: > 100 µM
TGI [39]: 39.5 µM
TGI [41]: > 100 µM
TGI [42]: > 100 µM
TGI [44]: > 100 µM
TGI [45]: > 100 µM
TGI [46]: > 100 µM
TGI [63]: > 100 µM
TGI [47]: > 100 µM
TGI [48]: > 100 µM
TGI [49]: > 100 µM
TGI [50]: 43.1 µM
TGI [51]: 99.6 µM
TGI [52]: > 100 µM
TGI [53]: > 100 µM
TGI [54]: 50.1 µM
TGI [55]: 33.9 µM
TGI [56]: 90.7 µM
TGI [61]: > 100 µM
TGI [64]: 97.4 µM
